*1 amine or outer side, *2 acyl side, *3 side chain or, on linkers, in order; H or OH if unused. Where a SMILES comes first, the peptide text is derived from it. Side-chain parts run from the residue outwards. [ ]: non-standard residue; d: D form. The star is where a group is joined. γGlu = O=C(O)[C@H](CCC(=O)[*:2])N[*:1]; Stearoyl = CCCCCCCCCCCCCCCCCC(=O)*; Palmitoyl = CCCCCCCCCCCCCCCC(=O)*; Nle = CCCC[C@H](N)C(=O)O; AEEA = NCCOCCOCC(=O)O; Aib = CC(C)(N)C(=O)O
Molecular target: T1, RXFP1 (Homo sapiens, UniProt Q9HBX9)
T1 construct: OVCAR5 cells expressing endogenous RXFP1; endogenous in cells; host or cells: OVCAR5 cells
T1 sequence (Q9HBX9 1-757): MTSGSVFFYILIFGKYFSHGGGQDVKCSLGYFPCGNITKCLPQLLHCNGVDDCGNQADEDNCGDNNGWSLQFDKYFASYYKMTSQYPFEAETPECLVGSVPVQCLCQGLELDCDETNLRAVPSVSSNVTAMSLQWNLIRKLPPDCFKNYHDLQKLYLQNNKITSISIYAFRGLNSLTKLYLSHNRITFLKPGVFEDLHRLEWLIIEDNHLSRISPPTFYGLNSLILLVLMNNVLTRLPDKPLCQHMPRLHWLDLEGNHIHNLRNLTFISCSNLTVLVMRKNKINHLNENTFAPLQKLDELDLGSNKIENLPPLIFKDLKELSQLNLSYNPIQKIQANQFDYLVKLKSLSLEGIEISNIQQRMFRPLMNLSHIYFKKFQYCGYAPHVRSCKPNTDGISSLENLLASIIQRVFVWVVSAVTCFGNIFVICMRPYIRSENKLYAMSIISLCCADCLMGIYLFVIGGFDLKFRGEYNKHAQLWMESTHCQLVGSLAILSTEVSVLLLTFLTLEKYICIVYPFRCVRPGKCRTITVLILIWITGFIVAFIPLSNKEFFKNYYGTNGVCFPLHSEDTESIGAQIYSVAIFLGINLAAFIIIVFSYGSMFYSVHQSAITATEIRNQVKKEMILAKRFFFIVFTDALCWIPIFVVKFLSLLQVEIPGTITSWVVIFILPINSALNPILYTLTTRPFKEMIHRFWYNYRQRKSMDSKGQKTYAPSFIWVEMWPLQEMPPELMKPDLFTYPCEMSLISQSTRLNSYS
Assay: OVCAR5 cAMP assay (HTRF), RXFP1 agonist activity
Type: cell-based
Conditions: for Emax: OVCAR-5, maximal cAMP relative to H2-relaxin maximum (100%), read-out: EMax, OVCAR 5 cells (cAMP)
Outline: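 cAMP accumulation readout: after 1 mM IBMX for 40 min, endogenous-RXFP1 OVCAR5 cells got rising peptide concentrations without FCS, 30 min, 37° C, then lysis with HTRF cAMP reagents. Nonlinear regression gave EC50; Emax expressed relative to H2-relaxin maximum, same occasion.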

SMILES	EC50 (OVCAR5 cells, cAMP HTRF, read-out: EC50 (nM), OVCAR 5 cells (cAMP)) [nM]	Emax [%]
CCCCCCCCCCCCCCCC(=O)N[C@@H](CCC(=O)NCCOCCOCC(=O)N[C@@H](CCC(=O)N[C@@H](CCC(=O)NCCOCCOCC(=O)NCCOCCOCC(=O)NCCCC[C@H](NC(=O)[C@H](CCCCNC(C)=O)NC(=O)[C@H](CCCCN)NC(=O)[C@H](CCCNC(=N)N)NC(=O)C(C)(C)NC(=O)[C@H](CO)NC(=O)[C@H](Cc1c[nH]c2ccccc12)NC(=O)[C@@H](NC(=O)[C@H](CO)NC(=O)[C@H](CCCC)NC(=O)CNC(=O)[C@H](CCC(=O)O)NC(=O)C(C)(C)NC(=O)C(C)(C)NC(=O)[C@@H](NC(=O)[C@H](CCCCNC(C)=O)NC(=O)[C@H](C)NC(=O)[C@H](CCCNC(=N)N)NC(=O)[C@@H](NC(=O)[C@H](CCCCN)NC(=O)[C@H](CCC(=O)O)NC(=O)[C@H](CCCNC(=N)N)NC(=O)CNC(=O)[C@H](CCC(=O)O)NC(=O)[C@H](CC(C)C)NC(C)=O)C(C)C)[C@@H](C)CC)[C@@H](C)O)C(N)=O)C(=O)O)C(=O)O)C(=O)O [compound 165] (Ac-LEGREKVRAK(Ac)I[Aib][Aib]EG[Nle]STWS[Aib]RKK(Ac)K([AEEA-AEEA-γGlu-γGlu-AEEA-γGlu-Palmitoyl])-NH2)	0.38	105
CCCCCCCCCCCCCCCC(=O)N[C@@H](CCC(=O)NCCOCCOCC(=O)NCCCC[C@H](NC(=O)[C@H](CCCCN)NC(=O)[C@H](CCCNC(=N)N)NC(=O)C(C)(C)NC(=O)[C@H](CO)NC(=O)[C@H](Cc1c[nH]c2ccccc12)NC(=O)[C@@H](NC(=O)[C@H](CO)NC(=O)[C@H](CCCC)NC(=O)CNC(=O)[C@H](CCC(=O)O)NC(=O)C(C)(C)NC(=O)C(C)(C)NC(=O)[C@@H](NC(=O)[C@H](CCC(N)=O)NC(=O)[C@H](C)NC(=O)[C@H](CCCNC(=N)N)NC(=O)[C@@H](NC(=O)[C@H](CCCCN)NC(=O)[C@H](CCC(=O)O)NC(=O)[C@H](CCCNC(=N)N)NC(=O)CNC(=O)[C@H](CCC(=O)O)NC(=O)[C@H](CC(C)C)NC(C)=O)C(C)C)[C@@H](C)CC)[C@@H](C)O)C(N)=O)C(=O)O [compound 53] (Ac-LEGREKVRAQI[Aib][Aib]EG[Nle]STWS[Aib]RKK([AEEA-γGlu-Palmitoyl])-NH2)		97
CCCCCCCCCCCCCCCCCC(=O)N[C@@H](CCC(=O)NCCOCCOCC(=O)NCCOCCOCC(=O)NCCOCCOCC(=O)N[C@@H](CCC(=O)N[C@@H](CCC(=O)NCCCC[C@H](NC(=O)[C@H](CCCCN)NC(=O)[C@H](CCCCN)NC(=O)[C@H](CCCNC(=N)N)NC(=O)C(C)(C)NC(=O)[C@H](CO)NC(=O)[C@H](Cc1c[nH]c2ccccc12)NC(=O)[C@@H](NC(=O)[C@H](CO)NC(=O)[C@H](CCCC)NC(=O)CNC(=O)[C@H](CCC(=O)O)NC(=O)C(C)(C)NC(=O)C(C)(C)NC(=O)[C@@H](NC(=O)[C@H](CCC(N)=O)NC(=O)[C@H](C)NC(=O)[C@H](CCCNC(=N)N)NC(=O)[C@@H](NC(=O)[C@H](CCCCN)NC(=O)[C@H](CCC(=O)O)NC(=O)[C@H](CCCNC(=N)N)NC(=O)CNC(=O)[C@H](CCC(=O)O)NC(=O)[C@H](CC(C)C)NC(C)=O)C(C)C)[C@@H](C)CC)[C@@H](C)O)C(N)=O)C(=O)O)C(=O)O)C(=O)O [compound 106] (Ac-LEGREKVRAQI[Aib][Aib]EG[Nle]STWS[Aib]RKKK([γGlu-γGlu-AEEA-AEEA-AEEA-γGlu-Stearoyl])-NH2)		93

Source: patent publication US10988523B2, “Modified lipidated Relaxin B chain peptides and their therapeutic use” (Sanofi, priority 2018, dated 2021)
